{
  "source": "patent US8742203B2",
  "about": "“Chemically Inducible Expression of Biosynthetic Pathways” (Metabolix, Inc., priority 2005, dated 2014)",
  "tested_on": "1I Arabidopsis plants",
  "experiment": "PHB yield in 1I plants, foliar applications of tebufenozide",
  "assay_type": "in vivo, Arabidopsis thaliana",
  "description": "The genes required for the complete PHB production pathway, a β-ketothiolase (thiolase), an NADPH-acetoacetyl-CoA reductase (reductase) and a PHA synthase (synthase), were individually placed under the control of the minimal ^35S ecdysone-inducible promoter, fused to a plastid targeting signal, and cloned into a pCAMBIA (Centre for Application of Molecular Biology to International Agriculture, Canberra, Australia) based multigene plasmid containing the chimeric ecdysone receptor (A. Martinez, C. Sparks, C. A. Hart, J. Thompson, I. Jepson, Plant J. 19: 97 (1999)). This three-gene inducible construct is designated 3I. The single-gene inducible construct designated 1I contained the thiolase gene under the control of the inducible promoter, but unlike the 3I construct, it expressed the reductase and synthase genes under the control of the constitutive 35S-C4PPDK promoter (W. Chiu et al. Curr. Biol. 6: 325 (1996)).\nFurther analysis of the 1I construct by screening an additional 235 T1 1I plants identified plants capable of producing 2.5% and 2.6% dwt PHB respectively, in the presence and absence of foliar applications of the inducing agent tebufenozide. The ability of this construct to promote PHB production in a non-inducible fashion was confirmed through analysis of 72 T2 offspring of the best T1 1I plant. […]",
  "data": [
    {"smiles": "CCc1ccc(C(=O)NN(C(=O)c2cc(C)cc(C)c2)C(C)(C)C)cc1", "note": "[tebufenozide]", "values": [
      {"measurement": "PHB produced by best plants", "setting": "additional 235 T1 1I plants screened, in the presence of foliar tebufenozide", "result": 2.5, "unit": "% dwt"},
      {"measurement": "Average PHB accumulated", "setting": "treated T2 1I offspring of best T1 1I plant, in the presence of inducing agent", "result": "4.2±2.5", "unit": "% dwt"}
    ]}
  ]
}
